# Assay results reported in patent US9283208B2, “Medicaments and methods for treating cancer” (NIIKI PHARMA INC., priority 2011, dated 2016).
# Marks after values point to notes of the source that are not given here.
# Assays:
# [1] = system: certain types of cancer; settings: See U.S. Pat. No. 7,338,946; cited from earlier work
# [2] = system: patients with advanced solid tumors refractory to treatment; experiment: Phase I dose-escalation trial (US): safety, tolerability, DLT and MTD; type: in vivo, human
# Text: (§1) Two Phase I dose-escalation clinical studies involving sodium trans-[tetrachlorobis(1H-indazole)ruthenate (III)] (“test drug”) have been conducted. The primary objective of both studies is to determine the safety, tolerability and maximal tolerated dose (MTD) of the test drug. Secondary objectives are to estimate the PK parameters, to identify any preliminary evidence of anti-tumor activity of the test drug in patients with advanced cancers, and to explore pharmacodynamic (PD) endpoints which may be of use in the further development of the test drug.
# (§2) In the first trial which has been conducted in two centers in the US, the “test drug” was given intravenously once a week, i.e., on days 1, 8, and 15 of each 28-day cycle to patients with advanced solid tumors refractory to treatment. The patients had advanced solid tumors that had been heavily treated previously, had failed an average of 7 previous lines of chemotherapy, and had progressing disease at the time of entry into the trial. Standard 3+3 design with expanded cohort up to 25 patients at the maximal tolerated dose (MTD).
# Major Inclusion/Exclusion Criteria: • Patients≧18 years with histologically or cytologically confirmed advanced solid tumors refractory to standard therapies • ECOG PS 0 or 1 • Adequate hematologic, hepatic and renal function • No symptomatic CNS metastases, no primary brain tumors • No evidence of ischemia, recent MI, or significant abnormality on ECG • No Peripheral neuropathy ≧Grade 2 • Minimum life expectancy ≧12 weeks
# Definition of Dose Limiting Toxicity (DLT):
# Toxicity severity graded according to the CTCAE (ver. 3.0); occurring during Cycle 1 and related to test drug: • Grade 4 neutropenia for ≧7 days • Febrile neutropenia • Grade 4 thrombocytopenia or Grade • ≧Grade 2 neurotoxicity • ≧Grade 2 cardiotoxicity • Grade 2 hypersensitivity reaction or infusion reaction • Any other non-hematologic Grade 3 or 4 toxicity other than nausea/vomiting or alopecia • Inability to complete the first cycle due to any toxicity thought to be related to test drug.
# [3] = system: advanced solid tumors refractory to treatment; experiment: Phase I dose-escalation trial (US): anti-tumor activity (partial response or stable disease); type: in vivo, human
# Text: as §1, §2
# 36 pts completed ≧one cycle of therapy and are evaluable to assess antitumor efficacy. […] All patients had PD at study entry.
# [4] = system: advanced solid tumors refractory to treatment; experiment: Phase I dose-escalation trial (UK): anti-tumor effect; type: in vivo, human
# Text: as §1
# (§3) The second trial was conducted in two centers in the United Kingdom (UK) with the test drug being administered on days 1 through 4 of each 21-day cycle to patients with advanced solid tumors refractory to treatment. The patients had been heavily pre-treated and had failed an average of 3 previous lines of chemotherapy. Dose escalation progressed from 20 to 500 mg/m^2.
# [5] = Pharmacokinetics in patients: plasma total ruthenium; type: in vivo, human; settings: for C1D8 Hour 0 ng/mL Ru / C2D1 Hour 0 ng/mL Ru: pre-infusion trough
# Method: (§4) Pharmacokinetics: PK samples were obtained 0, 0.25, 0.5, 1, 2, 4, 6-8, 10-12, and 24 hours after the start of the infusion on Cycle 1 Day 1 as well as pre-infusion on Cycle 1 Day 8 and Cycle 2 Day 1. Plasma and urine were analyzed for total ruthenium [Ru] (free and bound). […] Peak plasma Ru levels were achieved by hour 2 (FIG. 2A). […] The estimated T½ is 91.4-112 hours.
# [6] = Pharmacokinetics in patients: urinary excretion of ruthenium; type: in vivo, human; settings: in the 24 hours following Cycle 1 Day 1 dosing
# Method: as §4
# [7] = system: patients with advanced solid tumors refractory to treatment; experiment: Infusional fever with or without steroid premedication (US trial); type: in vivo, human
# Method: (§5) Thereafter, in the US trial, in some patients, premedication of decadron (dexamethasone) was administered, with or without 5HT3 antagonists (serotonin antagonists) like ondansetron and granisetron. The decadron was given to prevent fever, at 4-10 mg IV. […] None of the patients premedicated with decadron had any incidence of infusion-related fever.
# [8] = system: patients with advanced solid tumors refractory to treatment; experiment: Phase I dose-escalation trial (UK): adverse reactions; type: in vivo, human; settings: dose of 320 mg/m^2 and above
# Method: as §3, §5
# [9] = US trial, IV once a week on days 1, 8, 15 of 28-day cycle
# [10] = 320 mg/m^2, total drug 630 mg, NET (carcinoid tumor of small intestine), 3 prior systemic therapies
# [11] = 320 mg/m^2, total drug 630 mg, NET (carcinoid tumor of small intestine), 3 prior systemic therapies, listed as Sodium trans-[tetrachlorobis(1H-indazole)ruthenate (III)]
structure (smiles),measurement,setting,value
"[Cl-].[Cl-].[Cl-].[Cl-].[Ru+3].c1ccc2[nH][nH+]cc2c1.c1ccc2[nH]ncc2c1.c1ccc2[nH]ncc2c1 [indazolium trans-[tetrachlorobis(1H-indazole)ruthenate (III)], reference compound]",inducing apoptosis in certain types of cancer,[1],highly potent
"[Cl][Ru-]([Cl])([Cl])[Cl].[Na+].c1ccc2[nH]ncc2c1.c1ccc2[nH]ncc2c1 [test drug, sodium trans-[tetrachlorobis(1H-indazole)ruthenate (III)]]",Patients w/ DLT,"[2]; 320 mg/m^2, 7 patients dosed",1
same,major adverse event related to the test drug,"[2]; 320 mg/m^2 on days 1, 8, 15 of 28-day cycle, carcinoid tumor patient treated over 100 weeks",No major adverse event
same,Patients w/ DLT,"[2]; 625 mg/m^2, 6 patients dosed",1
same,Patients w/ DLT,"[2]; 780 mg/m^2, 9 patients dosed",3
same,DLT Seen at 780 mg/m^2,"[2]; 780 mg/m^2, patient, not premedicated with steroids",A person had an infusion reaction consisting of fever
same,time for Grade 2 creatinine elevation to return to baseline,"[2]; 780 mg/m^2, person one",within 1 week.
same,DLT Seen at 780 mg/m^2,"[2]; 780 mg/m^2, person one, following Cycle 1 Day 1 dosing, fatigue",Grade 1 fatigue following Cycle 1 Day 1 dosing associated
same,DLT Seen at 780 mg/m^2,"[2]; 780 mg/m^2, person one, following Cycle 1 Day 1 dosing, nausea","person one had Grade 2 nausea, Grade 1 vomiting,"
same,time for Grade 2 creatinine elevation to return to baseline,"[2]; 780 mg/m^2, person two",≤ 3 weeks.
same,DLT dose,[2]; [9],780 mg/m^2
same,maximal tolerated dose (MTD),[2]; [9],625 mg/m^2
same,Patients replaced in due to PD in Cycle 1,"[3]; 320 mg/m^2, 7 patients dosed",1
same,Duration of therapy,"[3]; 320 mg/m^2, total drug 531 mg, NSCLC, 7 prior systemic therapies",16 weeks
same,Duration of therapy,"[3]; 320 mg/m^2, total drug 618 mg, NSCLC, 4 prior systemic therapies",16 weeks
same,Duration of therapy,[3]; [10],100+ weeks
same,Response,[3]; [10],PR (partial response (PR))
same,Duration of therapy,[3]; [11],over 100 weeks
same,Response,[3]; [11],tumor regression and partial response
same,Patients replaced in due to PD in Cycle 1,"[3]; 420 mg/m^2, 5 patients dosed",2
same,Duration of therapy,"[3]; 420 mg/m^2, total drug 832 mg, NET, 0 prior systemic therapies (failed 4 prior chemo- and Yttrium-embolization procedures)",24 weeks
same,Duration of therapy,"[3]; 500 mg/m^2, total drug 890 mg, Unknown primary, 2 prior systemic therapies",22 weeks
same,Duration of therapy,"[3]; 625 mg/m^2, total drug 1175 mg, GE Junction, 3 prior systemic therapies",12+ weeks
same,Duration of therapy,"[3]; 625 mg/m^2, total drug 1190 mg, CRC, 3 prior systemic therapies",12 weeks
same,Patients replaced in due to PD in Cycle 1,"[3]; 780 mg/m^2, 9 patients dosed",1
same,Duration of therapy,"[3]; 780 mg/m^2, total drug 1450 mg, Sarcoma, 3 prior systemic therapies",16 weeks
same,Duration of therapy,"[3]; 780 mg/m^2, total drug 1544 mg, NET, 1 prior systemic therapy",27+ weeks
same,minimum effective dosage for general use of treating cancer,[3]; human dose escalating clinical trial,320 mg/m^2
same,# weeks of treatment,"[4]; Patient 1, 20 mg/m^2, Esophageal",2 weeks
same,# weeks of treatment,"[4]; Patient 2, 40 mg/m^2, Head & Neck",4 weeks
same,Anti-tumor effect (best response),"[4]; Patient 2, 40 mg/m^2 days 1 through 4 of 21-day cycle, Head & Neck",Stable disease
same,# weeks of treatment,"[4]; Patient 3, 80 mg/m^2, Mesothelioma",2 weeks
same,# weeks of treatment,"[4]; Patient 4, 160 mg/m^2, Cecum",2 weeks
same,# weeks of treatment,"[4]; Patient 5, 320 mg/m^2, Anal",1 weeks
same,# weeks of treatment,"[4]; Patient 6, 500 mg/m^2, Rectal",4 weeks
same,Anti-tumor effect (best response),"[4]; Patient 6, 500 mg/m^2 days 1 through 4 of 21-day cycle, Rectal",Stable disease
same,# weeks of treatment,"[4]; Patient 7, 500 mg/m^2, Esophageal",2 weeks
same,C1D1 Hour 24 ng/mL Ru,"[5]; 20 mg/m^2, plasma total Ru",1366 ng/mL Ru
same,C1D8 Hour 0 ng/mL Ru,"[5]; 20 mg/m^2, plasma total Ru",528 ng/mL Ru
same,C2D1 Hour 0 ng/mL Ru,"[5]; 20 mg/m^2, plasma total Ru",670 ng/mL Ru
same,C1D1 Hour 24 ng/mL Ru,"[5]; 40 mg/m^2, plasma total Ru",2884 ng/mL Ru
same,C1D8 Hour 0 ng/mL Ru,"[5]; 40 mg/m^2, plasma total Ru",1197 ng/mL Ru
same,C2D1 Hour 0 ng/mL Ru,"[5]; 40 mg/m^2, plasma total Ru",1472 ng/mL Ru
same,C1D1 Hour 24 ng/mL Ru,"[5]; 80 mg/m^2, plasma total Ru",4831 ng/mL Ru
same,C1D1 Hour 24 ng/mL Ru,"[5]; 160 mg/m^2, plasma total Ru",4639 ng/mL Ru
same,C1D8 Hour 0 ng/mL Ru,"[5]; 160 mg/m^2, plasma total Ru",4000 ng/mL Ru
same,C2D1 Hour 0 ng/mL Ru,"[5]; 160 mg/m^2, plasma total Ru",6588 ng/mL Ru
same,C1D1 Hour 24 ng/mL Ru,"[5]; 320 mg/m^2, plasma total Ru",20033 ng/mL Ru
same,C1D8 Hour 0 ng/mL Ru,"[5]; 320 mg/m^2, plasma total Ru",7667 ng/mL Ru
same,C2D1 Hour 0 ng/mL Ru,"[5]; 320 mg/m^2, plasma total Ru",10126 ng/mL Ru
same,C1D1 Hour 24 ng/mL Ru,"[5]; 420 mg/m^2, plasma total Ru",25921 ng/mL Ru
same,C1D8 Hour 0 ng/mL Ru,"[5]; 420 mg/m^2, plasma total Ru",9595 ng/mL Ru
same,C2D1 Hour 0 ng/mL Ru,"[5]; 420 mg/m^2, plasma total Ru",14698 ng/mL Ru
same,C1D1 Hour 24 ng/mL Ru,"[5]; 500 mg/m^2, plasma total Ru",28070 ng/mL Ru
same,C1D8 Hour 0 ng/mL Ru,"[5]; 500 mg/m^2, plasma total Ru",11880 ng/mL Ru
same,C2D1 Hour 0 ng/mL Ru,"[5]; 500 mg/m^2, plasma total Ru",13000 ng/mL Ru
same,C1D1 Hour 24 ng/mL Ru,"[5]; 625 mg/m^2, plasma total Ru",35216 ng/mL Ru
same,C1D8 Hour 0 ng/mL Ru,"[5]; 625 mg/m^2, plasma total Ru",12303 ng/mL Ru
same,C2D1 Hour 0 ng/mL Ru,"[5]; 625 mg/m^2, plasma total Ru",14363 ng/mL Ru
same,C1D1 Hour 24 ng/mL Ru,"[5]; 780 mg/m^2, plasma total Ru",43105 ng/mL Ru
same,C1D8 Hour 0 ng/mL Ru,"[5]; 780 mg/m^2, plasma total Ru",17001 ng/mL Ru
same,C2D1 Hour 0 ng/mL Ru,"[5]; 780 mg/m^2, plasma total Ru",22125 ng/mL Ru
same,dose proportionality of Cmax and AUC0-168,[5]; 20 to 780 mg/m^2,good dose proportionality
same,time by which peak plasma Ru levels were achieved,"[5]; after start of infusion, Cycle 1 Day 1",≤ 2 h
same,accumulation of Ru following dosing,[5]; noted by Cycle 1 Day 8 and Cycle 2 Day 1 levels,There is accumulation of Ru following dosing
same,estimated T½,"[5]; plasma total Ru, patients",91.4 to 112 h
same,urinary excretion of the test drug derived ruthenium,[6],low urinary excretion
same,# with fever,"[7]; 320 mg/m^2, no steroid premedication, 3 patients",0
same,# with fever,"[7]; 320 mg/m^2, steroid premedication, 4 patients",0
same,# with fever,"[7]; 420 mg/m^2, no steroid premedication, 3 patients, one had fever but then none after premed of additional doses",2*
same,# with fever,"[7]; 420 mg/m^2, steroid premedication, 2 patients",0
same,# with fever,"[7]; 500 mg/m^2, no steroid premedication, 1 patient",1
same,# with fever,"[7]; 500 mg/m^2, steroid premedication, 2 patients",0
same,# with fever,"[7]; 625 mg/m^2, no steroid premedication, 8 patients",1
same,# with fever,"[7]; 625 mg/m^2, steroid premedication, 10 patients",0
same,# with fever,"[7]; 780 mg/m^2, no steroid premedication, 3 patients",1
same,# with fever,"[7]; 780 mg/m^2, steroid premedication, 6 patients",0
same,incidence of fever or chill on intravenous infusion,[7]; at therapeutically effective doses,higher incidence of fever or chill
same,infusional fever,"[7]; patients without premedication, US trial",high likelihood of infusional fever
same,adverse reactions,[8],fever and chill were seen
same,inducing apoptosis in certain types of cancer,[1],highly potent
